Legend:
V-Csn = molecular target: T1, V-Csn (uncultured phage, UniProt Z9RE59BL32); test: X-ray crystal structure of co-crystal, […] A; format: binding; details: co-crystallised with about 5 mM chitohexaose, 0.2 M ammonium sulfate, 0.1 M sodium acetate pH 4.6, 30% MMePEG2000; active-site cleft; three of six GlcN residues modelled
T1 construct: model residues 1-224 plus linker GHS; dimer in solution

[1] = molecular target: V-Csn (Viral Chitosanase), soil viral GH75 chitosanase AMG product (soil virus (predicted Proteobacteria phage; forest soil metagenome)); test: SEC; size exclusion chromatography of purified V-Csn in solution; conditions of this observation are not given (gel filtration in the purification used a Superdex HiLoad 26/60 column)

Row | Compound | X-ray crystal structure of co-crystal, 1.30 A (V-Csn) | stoichiometry N [1]
1 | N[C@H]1[C@H](O[C@H]2[C@H](O)[C@@H](N)[C@H](O[C@H]3[C@H](O)[C@@H](N)[C@H](O[C@H]4[C@H](O)[C@@H](N)[C@H](O[C@H]5[C@H](O)[C@@H](N)[C@H](O[C@H]6[C@H](O)[C@@H](N)C(O)O[C@@H]6CO)O[C@@H]5CO)O[C@@H]4CO)O[C@@H]3CO)O[C@@H]2CO)O[C@H](CO)[C@@H](O)[C@@H]1O (some centres unmarked) [chitohexaose] | gave a complex with the E157Q mutant only | –
2 | V-Csn (Viral Chitosanase), soil viral GH75 chitosanase AMG product (enzyme) | – | 2
